Measured values reported in patent publication EP0679649B1, “2,3-Dihydrobenzofuran Derivatives” (Asahi Kasei Kogyo Kabushiki Kaisha, priority 1993, dated 1994).

Tests used:
male Wistar strain rats = assay: Anti-depression activity (forced swimming test using rats); assay type: in vivo, rat; settings: for Time spent in immobile state: 30 minutes before test, observed for 6 minutes, 6 rats, physiological saline 200; for time spent in the immobile state (result in words): hydrochloride, 30 mg/kg and 60 mg/kg p.o.
Source text: When a rat is put in a water tank, the rat struggles for its life to get out of the water (that is, the rat starts a "forced swimming"). If the rat finds that it is impossible for him to get out, the rat stops swimming and assumes an immobile state. It has been known that the administration of an antidepressant can cause a violent swimming motion in the rat for getting out of the water, with a result that the time spent in the immobile state is shortened. The shortening of the time in the immobile state of the rat in the forced swimming test by the administration of the antidepressant is well correlated to the clinical anti-depression effect. Accordingly, in developing antidepressants, the forced swimming test using a rat is the most reliable screening method. In the present test, male Wistar strain rats were used. Compounds obtained in Examples 1, 17 and 18 of the present invention (each in the form of a hydrochloride thereof) were, individually, orally administered to a rat. 30 minutes after the administration, the rat was put in a water tank and then, observed for 6 minutes. The time of the rat spent in the immobile state was measured.

serotonin 1A receptor = molecular target: T1, serotonin 1A receptor (Rattus norvegicus, UniProt P19327); assay: Affinity for serotonin 1A receptor (inhibition of 3H-8-OH-DPAT binding to rat hippocampal membrane fraction); settings: radioligand 3H-8-OH-DPAT, compounds tested as hydrochloride salt, read-out: 5-HT1A Ki
T1 construct: The resultant precipitate was used as a rat hippocampal membrane fraction in the following procedures; from tissue; host or cells: brain (hippocampal) membrane fraction of male SD rat
T1 sequence (P19327 1-422): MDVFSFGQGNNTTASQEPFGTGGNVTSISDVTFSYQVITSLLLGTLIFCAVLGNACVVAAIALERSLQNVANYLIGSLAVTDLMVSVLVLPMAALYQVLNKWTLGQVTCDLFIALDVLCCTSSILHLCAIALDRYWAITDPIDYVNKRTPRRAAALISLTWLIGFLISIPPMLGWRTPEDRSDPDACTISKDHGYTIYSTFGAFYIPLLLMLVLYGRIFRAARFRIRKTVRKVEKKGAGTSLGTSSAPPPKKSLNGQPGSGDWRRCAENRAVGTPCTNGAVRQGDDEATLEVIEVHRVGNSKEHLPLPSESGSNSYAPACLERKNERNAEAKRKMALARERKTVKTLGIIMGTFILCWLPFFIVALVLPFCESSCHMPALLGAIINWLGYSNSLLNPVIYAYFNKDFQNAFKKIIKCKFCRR

adrenaline α1 receptor = assay: Affinity for adrenaline α1 receptor (inhibition of 3H-Prazosin binding to rat cerebral cortex membrane fraction); settings: for Ki: rat cerebral cortex membrane fraction, radioligand 3H-Prazosin, compounds tested as hydrochloride salt
Method: A male SD strain rat (7-week old; Charles River) was decapitated, and brain was taken out therefrom quickly. Cerebral cortex of the rat was separated and extracted at […] under ice cooling. The extracted cerebral cortex was frozen at -80 °C for 24 hours or longer. This frozen system was gradually thawed under ice cooling and then, 50 mM Tris-HCl buffer (pH 7.4) was added to the brain under ice cooling to obtain a suspension. The resultant suspension was homogenized, and then subjected to centrifugation at 48000 g for 15 minutes, to thereby obtain a precipitate. The precipitate thus obtained was washed twice and resuspended in the same Tris-HCl buffer as used above. […] The total volume amount of the reaction mixture was 1 ml. The resultant reaction mixture was subjected to suction filtration using a Whatman GF/C filter, and the filter was washed three times in 50 mM Tris-HCl buffer (pH 7.4, 4 ml), transferred to a vial and then, the radioactivity of Prazosin absorbed on the filter was determined using a liquid scintillation counter. […] Further, substantially the same procedure as mentioned above was repeated, except that, instead of Prazosin, a test compound was used in a predetermined concentration. […] The binding inhibition ratios were plotted, taking the logarithmic value of the concentration of the test compound as the abscissa value, and the binding inhibition ratio as the ordinate value. Then, a curve was drawn by non-linear least square method.

mice = assay: Toxicity test (intraperitoneal administration to mice); assay type: in vivo; settings: intraperitoneally administered to mice, 100 mg/kg
[1] = Dose 30 mg/kg p.o. (hydrochloride), 30 mg/kg

Compound: O=C(NCCCCNCC1Cc2ccccc2O1)c1ccccc1 (single isomer, unassigned; (+)) [Example 17, (+)-2-{N-(4-benzoylamino)butyl}aminomethyl-2,3-dihydrobenzo[b]furan]
- Time spent in immobile state (male Wistar strain rats; Dose 60 mg/kg p.o. (hydrochloride)): 142 s
- time spent in the immobile state (result in words) (male Wistar strain rats): remarkably shortened the time spent in the immobile state

Compound: O=C(NCCCCNCC1Cc2ccccc2O1)c1ccccc1 (single isomer, unassigned; (-)) [Example 18, (-)-2-{N-(4-benzoylaminobutyl)}aminomethyl-2,3-dihydrobenzo[b]furan]
- Ki (serotonin 1A receptor): 0.0013 µM
- Ki (adrenaline α1 receptor): 0.27 µM
- Time spent in immobile state (male Wistar strain rats; [1]): 142 s
- time spent in the immobile state (result in words) (male Wistar strain rats): remarkably shortened the time spent in the immobile state

Compound: O=C(NCCCCNCC1Cc2ccccc2O1)c1ccccc1 (stereo not shown) [Example 1, 2-{N-(4-benzoylaminobutyl)}aminomethyl-2,3-dihydrobenzo[b]furan]
- mortality / toxicity (mice): none of the mice died
- Ki (serotonin 1A receptor): 0.0029 µM
- Ki (adrenaline α1 receptor): 0.35 µM
- Time spent in immobile state (male Wistar strain rats; [1]): 117 s
- time spent in the immobile state (result in words) (male Wistar strain rats): remarkably shortened the time spent in the immobile state

Compound: O=S(=O)(NCCCCNCC1Cc2ccccc2O1)c1ccccc1 (stereo not shown) [Example 2, 2-{N-(4-benzenesulfonamidobutyl)}aminomethyl-2,3-dihydrobenzo[b]furan]
- Ki (serotonin 1A receptor): 0.011 µM
- Ki (adrenaline α1 receptor): 0.27 µM

Compound: Cc1cccc(C(=O)NCCCCNCC2Cc3ccccc3O2)c1 (stereo not shown) [Example 4, 2,3-dihydro-2-[N-{4-(3-methylbenzoylamino)butyl}]aminomethylbenzo[b]furan]
- Ki (serotonin 1A receptor): 0.0012 µM
- Ki (adrenaline α1 receptor): 0.27 µM

Compound: Cc1ccc(C(=O)NCCCCNCC2Cc3ccccc3O2)cc1 (stereo not shown) [Example 5, 2,3-dihydro-2-[N-{4-(4-methylbenzoylamino)-butyl}]aminomethylbenzo[b]furan]
- Ki (serotonin 1A receptor): 0.012 µM
- Ki (adrenaline α1 receptor): 0.29 µM

Compound: COc1cccc(C(=O)NCCCCNCC2Cc3ccccc3O2)c1 (stereo not shown) [Example 7, 2,3-dihydro-2-[N-{4-(3-methoxybenzoylamino)butyl}]aminomethylbenzo[b]furan]
- Ki (serotonin 1A receptor): 0.0043 µM
- Ki (adrenaline α1 receptor): 0.34 µM

Compound: O=C(NCCCCNCC1Cc2ccccc2O1)c1ccccc1F (stereo not shown) [Example 9, 2,3-dihydro-2-[N-{4-(2-fluorobenzoylamino)butyl}]aminomethylbenzo[b]furan]
- Ki (serotonin 1A receptor): 0.0082 µM
- Ki (adrenaline α1 receptor): 0.33 µM

Compound: O=C(NCCCCNCC1Cc2ccccc2O1)c1cccc(F)c1 (stereo not shown) [Example 10, 2,3-dihydro-2-[N-{4-(3-fluorobenzoylamino)butyl}]aminomethylbenzo[b]furan]
- Ki (serotonin 1A receptor): 0.003 µM
- Ki (adrenaline α1 receptor): 0.42 µM

Compound: O=C(NCCCCNCC1Cc2ccccc2O1)c1ccc(F)cc1 (stereo not shown) [Example 11, 2,3-dihydro-2-[N-{4-(4-fluorobenzoylamino)butyl}]aminomethylbenzo[b]furan]
- Ki (serotonin 1A receptor): 0.0026 µM
- Ki (adrenaline α1 receptor): 0.3 µM

Compound: O=C(NCCCCNCC1Cc2ccccc2O1)c1cccc(C(F)(F)F)c1 (stereo not shown) [Example 13, 2,3-dihydro-2-[N-{4-(3-trifluoromethylbenzoylamino)butyl}]aminomethylbenzo[b]furan]
- Ki (serotonin 1A receptor): 0.0053 µM
- Ki (adrenaline α1 receptor): 0.38 µM

Compound: O=C(NCCCCNCC1Cc2ccccc2O1)c1cccc([N+](=O)[O-])c1 (stereo not shown) [Example 15, 2,3-dihydro-2-[N-{4-(3-nitrobenzoylamino)butyl}]aminomethylbenzo[b]furan]
- Ki (serotonin 1A receptor): 0.011 µM
- Ki (adrenaline α1 receptor): 0.25 µM

Compound: O=C(NCCNCC1Cc2ccccc2O1)c1ccccc1 (stereo not shown) [Example 19, 2-{N-(2-benzoylaminoethyl)}aminomethyl-2,3-dihydrobenzo[b]furan]
- Ki (serotonin 1A receptor): 0.0037 µM

Compound: Cc1cccc(C(=O)NCCNCC2Cc3ccccc3O2)c1 (stereo not shown) [Example 20, 2-[N-{2-(3-methylbenzoylamino)ethyl}]aminomethyl-2,3-dihydrobenzo[b]furan]
- Ki (serotonin 1A receptor): 0.0016 µM

Compound: O=C(NCCNCC1Cc2ccccc2O1)c1ccc(F)cc1 (stereo not shown) [Example 21, 2-[N-{2-(4-fluorobenzoyl)aminoethyl}]aminomethyl-2,3-dihydrobenzo[b]furan]
- Ki (serotonin 1A receptor): 0.002 µM

Compound: O=C(NCCCNCC1Cc2ccccc2O1)c1ccc(F)cc1 (stereo not shown) [Example 23, 2-[N-{3-(4-fluorobenzoylamino)propyl}]aminomethyl-2,3-dihydrobenzo[b]furan]
- Ki (serotonin 1A receptor): 0.012 µM

Compound: CN(CCCCNC(=O)c1ccccc1)CC1Cc2ccccc2O1 (stereo not shown) [Example 24, 2-{N-(4-benzoylaminobutyl)-N-methyl}aminomethyl-2,3-dihydrobenzo[b]furan]
- Ki (serotonin 1A receptor): 0.011 µM
- Ki (adrenaline α1 receptor): 0.76 µM

Compound: CCN(CCCCNC(=O)c1ccccc1)CC1Cc2ccccc2O1 (stereo not shown) [Example 25, 2-{N-(4-benzoylaminobutyl)-N-ethyl}aminomethyl-2,3-dihydrobenzo[b]furan]
- Ki (serotonin 1A receptor): 0.0031 µM
- Ki (adrenaline α1 receptor): 0.71 µM

Compound: O=C(NCCCCNCC1Cc2ccccc2O1)c1ccccc1O (stereo not shown) [Example 29, 2,3-dihydro-2-[N-{4-(2-hydroxybenzoylamino)butyl}]aminomethylbenzo[b]furan]
- Ki (serotonin 1A receptor): 0.0054 µM
- Ki (adrenaline α1 receptor): 0.26 µM

Compound: ^3H-Prazosin [reference compound]
- Kd (adrenaline α1 receptor; value used in the Ki calculation, read-out: Kd of the radioactive ligand for the adrenaline α1 receptor): 0.000133 µM
